Test results taken from US11613533B2, “Compounds useful for inhibiting RET kinase” (Eli Lilly and Company, priority 2020, dated 2023).

What was measured:
[1] = biological target: T1, wildtype RET kinase (N-terminal GST tagged recombinant human RET cytoplasmic domain, aa 658-end) (Homo sapiens, UniProt P07949); test: RET enzyme assay (HTRF KinEASE TK), wildtype; type: biochemical; details: 1 mM ATP, 60 min incubation at 22° C.
T1 construct: human RET cytoplasmic domain (aa 658-end); GST (N); purchased Eurofins 14-570M
T1 sequence (P07949 658-1114 limits assumed): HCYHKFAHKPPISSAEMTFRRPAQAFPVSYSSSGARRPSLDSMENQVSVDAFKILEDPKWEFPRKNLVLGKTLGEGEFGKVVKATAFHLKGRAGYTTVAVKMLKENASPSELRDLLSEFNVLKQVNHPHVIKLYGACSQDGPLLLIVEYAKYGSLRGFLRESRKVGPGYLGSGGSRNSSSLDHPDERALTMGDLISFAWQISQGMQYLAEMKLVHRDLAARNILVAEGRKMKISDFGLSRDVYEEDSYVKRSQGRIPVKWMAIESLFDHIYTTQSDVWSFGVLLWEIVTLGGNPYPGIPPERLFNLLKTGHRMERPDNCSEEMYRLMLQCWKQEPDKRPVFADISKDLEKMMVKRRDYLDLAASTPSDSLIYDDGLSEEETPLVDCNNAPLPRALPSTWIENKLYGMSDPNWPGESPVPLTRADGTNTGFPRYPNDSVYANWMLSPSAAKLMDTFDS
Protocol: Assay A: RET Enzyme Assay
Compounds of formulas I, II, or III are screened for their ability to inhibit wildtype, V804M, and G810S mutant RET kinase using CisBio's HTRF® KinEASE™TK assay technology. N-terminal GST tagged recombinant human RET cytoplasmic domain (aa 658-end) from Eurofins ([…]; Catalog No. 14-570M) or N-terminal GST tagged recombinant human V804M mutant RET cytoplasmic domain (aa 658-end) from Millipore (1.25 nM enzyme; Catalog No. 14-760) or N-Terminal GST-tagged recombinant human G810S (aa-658-end) (1.25 nM Enzyme; produced in insect cells) is incubated with 62.5 nM TK-substrate biotin (CisBio, part of Catalog No. 62TK0PEC) and 1 mM ATP along with test compound (0.4% final DMSO in the assay) in a 1× Cisbio enzymatic buffer consisting of […], 5 mM MgCl2, 0.04% BSA and 0.05% Tween20 in a volume of 10 μL. Compounds are typically prepared in a threefold serial dilution in DMSO and added to the assay to give the appropriate final concentration. After a 40-60 min (40 min for V804M, 60 min for WT and G810S) incubation at 22° C., the reaction is quenched by adding quench solution (10 μL) containing 7.8 nM Streptavidine-XL665 and 0.5×TK-ab-Cryptate in HTRF detection buffer (all from CisBio, part of Cat. No. 62TK0PEC). After a 60-80 min incubation (60 minutes for WT, 80 minutes for V804M and G810S) at 22° C., the extent of reaction is determined using a PHERastar plate reader via HTRF detection at excitation/emission 337/665 nm. Percent of inhibition is calculated with 0% inhibition referring to control conditions containing no compound (0.4% DMSO only) and 100% inhibition represented by conditions containing no enzyme. The % inhibition values are fit to a 4 parameter logistic curve, and the determined IC50 value is defined as the estimated concentration of inhibitor at the inflexion point of the fitted curve.

[2] = biological target: T2, KIF5B-RET WT in HEK293 cells (Homo sapiens, UniProt P07949); test: RET cell assay (In-Cell Western, phospho-RET Y1062), wildtype; type: cell-based; details: HEK293, doxycycline-induced KIF5B-RET WT, 1 hr compound treatment; read-out: EC50, inhibition of intracellular autophosphorylation of RET at tyrosine 1062, wildtype cells
T2 construct: expressed in transfected cells; host or cells: HEK293; the other entry of the earlier key: KIF5B (P33176, Kinesin-1 heavy chain)
T2 sequence (P07949 713-1063 limits assumed): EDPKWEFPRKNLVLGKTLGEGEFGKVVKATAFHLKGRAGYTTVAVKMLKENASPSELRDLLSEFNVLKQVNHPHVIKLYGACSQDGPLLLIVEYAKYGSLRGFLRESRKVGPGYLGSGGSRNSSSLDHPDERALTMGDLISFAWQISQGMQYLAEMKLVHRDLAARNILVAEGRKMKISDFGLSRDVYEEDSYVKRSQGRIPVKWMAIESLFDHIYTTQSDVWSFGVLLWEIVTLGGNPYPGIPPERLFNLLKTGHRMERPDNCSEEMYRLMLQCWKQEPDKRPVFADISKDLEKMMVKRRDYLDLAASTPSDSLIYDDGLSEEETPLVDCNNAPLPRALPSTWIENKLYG
Protocol: Compounds of formulas (I), (II), and (III) are screened for their ability to inhibit the intracellular autophosphorylation of RET at tyrosine 1062 as detected by In-Cell Western. HEK293 cells containing a doxycycline-inducible plasmid for inducible expression of KIF5B-RET WT and RET mutant forms V804M and G810S are seeded at 25,000 cells/well into black poly-D-lysine pre-coated 384-well plates (Corning, Catalog No. 356697). Expression of KIF5B-RET is induced with doxycycline at 1 μg/mL and cells are incubated at 37° C. overnight. Compounds are prepared in a threefold serial dilution in DMSO before further diluting 1:100 in media prior to the addition to the cells (0.1% final DMSO concentration). Compound treatment is performed for 1 hr at 37° C. followed by fixation of cells with 4% formaldehyde for 20 min at RT and cell permeabilisation with ice-cold MeOH for 10 min at RT. Cells are incubated with Intercept® blocking buffer (Li—COR, Catalogue No. 927-70010) for 1 hr at RT. Incubation with primary antibodies against human phospho-RET (Y1062) (R&D, Catalogue No. AF5009, 1/250 dilution) and human glyceraldehyde-3-phosphate dehydrogenase (clone 6C5, Merck, Catalog No. MAB374, 1/1000 dilution) are performed overnight at 4° C. Incubation with secondary antibodies IRDye® 800CW goat anti-rabbit IgG (Li—COR, Catalogue No. 926-32211, 1/1000 dilution) and IRDye® 680CW goat anti-mouse IgG (Li—COR, Catalogue No. 926-68070, 1/1000 dilution) are performed for 1 hr at RT. All antibody dilutions are done in Intercept® blocking buffer containing 0.05% Tween20. After washing cells with PBS-T (Cell Signaling technology, Catalogue No. 9809), the images are acquired on a Li—COR Odyssey LCx at 700 and 800 nm. Percent of DMSO control is calculated with 100% signal referring to control conditions containing no compound (0.4% DMSO only) and 0% signal represented by conditions containing control compound. The % of DMSO control values are fit to a 4 parameter logistic curve, and the determined EC50 value is defined as the estimated concentration of inhibitor at the inflexion point of the fitted curve.

Question: How did the IC50 [1] turn out when `CC(C(=O)Nc1cc(C(C)(C)C)sn1)c1ccc(-c2nn(C(C)C)c(N)c2C(N)=O)cc1` (single isomer, unassigned; isomer 2) [Example 80, 5-Amino-3-(4-[1-[(5-tert-butyl-1,2-thiazol-3-yl)carbamoyl]ethyl]phenyl)-1-isopropylpyrazole-4-carboxamide, isomer 2] was run?
Answer: < 100 nM

Question: And the EC50 [2]?
Answer: < 100 nM

Question: For `CCC(C)(C)c1cc(NC(=O)C(C)c2ccc(-c3nn(C(C)C)c(N)c3C(N)=O)cn2)on1` (single isomer, unassigned; isomer 2) [Example 84, 5-Amino-1-isopropyl-3-[6-[2-[[3-(1,1-dimethylpropyl)isoxazol-5-yl]amino]-1-methyl-2-oxo-ethyl]-3-pyridyl]pyrazole-4-carboxamide, Isomer 2], which IC50 [1] is on record?
Answer: < 100 nM

Question: And the EC50 [2]?
Answer: < 100 nM

Question: Which IC50 [1] does the source give for `CC(C(=O)Nc1cc(C(C)(C)C(F)(F)F)no1)c1ccc(-c2nn(C(C)C)c(N)c2C(N)=O)cn1` (single isomer, unassigned; isomer 2) [Example 90, 5-Amino-1-isopropyl-3-[6-[1-methyl-2-oxo-2-[[3-(2,2,2-trifluoro-1,1-dimethyl-ethyl)isoxazol-5-yl]amino]ethyl]-3-pyridyl]pyrazole-4-carboxamide, Isomer 2] here?
Answer: < 100 nM

Question: What about the EC50 [2] of the same compound?
Answer: < 100 nM

Question: `CC(C(=O)Nc1cc(-c2ccc(Cl)cc2Cl)no1)c1ccc(-c2nn(C(C)C)c(N)c2C(N)=O)cn1` (single isomer, unassigned; isomer 2) [Example 94, 5-Amino-1-isopropyl-3-[6-[2-[[3-(2,4-dichlorophenyl)isoxazol-5-yl]amino]-1-methyl-2-oxo-ethyl]-3-pyridyl]pyrazole-4-carboxamide, Isomer 2] was tested. Which IC50 [1] did it give?
Answer: < 100 nM

Question: What about the EC50 [2] of the same compound?
Answer: < 100 nM
